Experimental findings from paper PMC7997578, “Design, Synthesis, Dynamic Docking, Biochemical Characterization, and in Vivo Pharmacokinetics Studies of Novel Topoisomerase II Poisons with Promising Antiproliferative Activity” (Journal of Medicinal Chemistry, 2020) are described below.

A short description of this data set: in vivo pharmacokinetics in mice. To be noted: mouse. The procedure: Finally, on the basis of the overall results and drug-like profile, 3f was selected as our lead for in vivo pharmacokinetics studies, as a preparatory characterization for future analyses of in vivo drug efficacy in animal models of cancer. We tested two different routes of administration: (i) intravenous (iv) injection at a concentration of 3 mg/kg (n = 3 for each time point) and oral (po) treatment at a dose of 10 mg/kg (n = 3 for each time point). Despite the relatively low thermodynamic solubility of 3f (30 μM in PBS), the compound reached the target concentration in the formulation used for the in vivo experiments. The mean plasma concentration versus time profile of 3f is shown in Figure 5, and the corresponding pharmacokinetic parameters are summarized in the inserted table.
Male C57B6/J male mice, 8 weeks old, 25-30 g were used (Charles River). All procedures were performed in accordance with the Ethical Guidelines of European Communities Council (Directive 2010/63/EU of 22 September 2010) and accepted by the Italian Ministry of Health. All efforts were made to minimize animal suffering and to use the minimal number of animals required to produce reliable results, according to the “3Rs concept”. Animals were group-housed in ventilated cages (n=5 mice per cage) and had free access to food and water. They were maintained under a 12-hour light/dark cycle (lights on at 8:00 am) at controlled temperature (21°C ± 1°C) and relative humi dity […]
4. Pharm acok inet ic studies
Compound 3f was administered orally (P.O.) and intravenously (I.V.) to C57B6/J male mice at 10 and 3 mg/Kg dose. Vehicle was: PEG400/Tween 80/Saline solution at 10/10/80 % in volume respectively. 3f was first dissolved in 100% PEG, then diluted to the final target concentration in this vehicle. The target concentration of 3f in the dosing solution was checked and confirmed by LC-MS .
The dosing solutions were diluted differently in the vehicle. The different dilutions were further diluted 4-fold with CH3CN prior to analysis. A reference standard was spiked in the vehicle to prepare a calibration curve over a 0.1 -10µM range. The ca librators were also diluted 4 -fold with CH3CN as for the dosing solution dilutions. The dosing solutions and calibrators were analys ed under the sam e conditions as for the plasma samples described below.
Three animals per dose were treated. Blood samples at 0, 15, 30, 60, 120, 240, and 480 minutes after administration were collected for PO arm. Blood samples at 0, 5, 15, 30, 60, 120 and 240 minutes after administration were collected for IV arm. Plasma was separated from blood by centrifugation for 15 minutes at 3500 rpm a 4°C, collected in a eppendorf tube and frozen ( -80°C). Brain samples were homogenized in Phosphate buffered saline a nd were then split in two aliquots kept at -80 °C until analysis. An aliquot was used for compound brain level evaluations, following the same procedure described below for plasma samples. The second aliquot was kept for protein content evaluation by bicinchoninic acid assay (BC A). Control animals treated with vehicle only w ere also included in the experimental protocol.
Plasma samples were centrifuged at 21.100g for 15min. at 4°C. A 50µl aliquot was transferred into a 96-Deep Well plate and 150µl of extraction so lution was added. The extraction solution was consisting of cold CH3CN spiked with 200n M of internal standard. The plate was centrifuged at 3270g for 15min. at 4°C. 80µl of supernatant was then transferred into a 96 -Deep Well plate and 80µl of H2O was added. A reference standard of the compound was spiked in naïve mouse plasma to prepare a calibration curve over a 1nM – 10µM range. Three quality control samples were prepared by spiking the compound in blank mouse plasma to the final concentrations of 20, 200 and 2000nM.
Calibrators and quality controls were extracted wit h the same e xtraction solution used for the plasma samples. The samples w ere analysed on a W aters ACQUITY UPLC/MS TQD system (Water s Inc. […]

As for `O=C(Nc1cccc(OC(F)(F)F)c1)c1c(O)n(-c2ccccc2)c(=S)n(-c2ccccc2)c1=O` [3f, 6-Hydroxy-4-oxo-1,3-diphenyl-2-thioxo-N-(3-(trifluoromethoxy)phenyl)-1,2,3,4-tetrahydropyrimidine-5-carboxamide], the concentration at 2 h (male, C57B6/J, plasma, iv 3 mg/kg, 2 h, read-out: plasma concentration after 2 h) was 551 ng/mL. The bioavailability (male, C57B6/J, plasma, po 10 mg/kg vs iv 3 mg/kg, based on AUC from t = 0 to 240 min, read-out: bioavailability F) turned out to be 8%. Besides, under “iv 3 mg/kg”, the AUCplasma was found to be 295528 ng·min/mL, the CL was 4 mL/min/kg, the Clp is reported as 0.004 L min^–1 kg^–1 and the Tmax is 0.083 h. Further, where the note is “iv 3 mg/kg”, the Vd was 3 L/kg and the “t½ (elimination phase)” value amounted to 0.5 h. In addition, for the setting “iv 3 mg/kg or po 10 mg/kg”, the “tolerability during PK studies” value is reported as “well tolerated” and the treatment-related clinical signs entry is recorded as “no treatment-related clinical signs were observed”. The compound also displayed a Cmax (iv 3 mg/kg, plasma) of 7366 ng/mL. Further, under “po 10 mg/kg”, the AUCplasma amounted to 77385 ng·min/mL; the time of peak concentration (Tmax) was determined as 2 h; the Vd worked out at 18 L/kg; the “plasma concentration reached at 1 h and stably maintained for at least 6 h” value was “about 400 ng/mL”. Moreover, under “po 10 mg/kg”, the “time of maximum concentration” value is reported as “approximately 2 h” and the “t½ (elimination phase)” value is 3.17 h. This compound came in with a Cmax (po 10 mg/kg, plasma) of 428 ng/mL.
